Among the test systems are KM20L2 colon; M19-MEL melanoma; SNB-78 CNS; LXFL 529 NSCLC; RXF-631 renal; DMS 114 small cell lung; XF 498 CNS; HOP-18 NSCLC; MDA-N.
Assay in all cases: DTP human tumour cell line panel, 48 h

“And” between values parts separate entries of the source, which are not always exact repeats. Identical values can stand only once.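 Cultured in 96-well plates, cells were exposed to test compound for 48 hours across five concentrations. At the GI50, growth is halved. At the TGI there is no net growth.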

`CN1C(c2ccccc2)CC(C)(O)CC1c1ccccc1` (stereo unspecified): the TGI with KM20L2 colon, in the test on M19-MEL melanoma, in the test on SNB-78 CNS, with LXFL 529 NSCLC, with RXF-631 renal and with DMS 114 small cell lung was above 100 µM in each case.

For the compound `Cn1cnc([N+](=O)[O-])c1Sc1nc2ccccc2o1`, the TGI was determined as 10.1 µM in the test with KM20L2 colon; 23.7 µM in the test with M19-MEL melanoma; 32.3 µM in the test on SNB-78 CNS; 19.7 µM with XF 498 CNS; 12.9 µM in the test on LXFL 529 NSCLC; 1.36 µM in the test on HOP-18 NSCLC. In addition, the TGI in the test with RXF-631 renal turned out to be 15.1 µM; in the test with DMS 114 small cell lung it was 4.89 µM.

In the case of `C=C[C@H]1CN2CCc3c([nH]c4c([C@@H]5CCCN5C)c(O)ccc34)[C@@H]2C[C@@H]1C[C@H]1c2[nH]c3ccccc3c2CCN1C`, in the test on MDA-N, the GI50 was 1.5 µM; the concentration for total growth inhibition (TGI) is 3.06 µM and 3.3 µM.

As for `CC1NC(C(=O)O)Cc2cc(O)c(O)cc21` (stereo unspecified), the TGI with MDA-N was above 100 µM.

With `CCC[CH2][Sn]1([CH2]CCC)[O]C(=O)CN=C(C)c2ccccc2[O]1`, the GI50 in the test with KM20L2 colon was 1.55 µM; in the test with M19-MEL melanoma it was 0.528 µM; with SNB-78 CNS, 0.312 µM; in the test with XF 498 CNS, 1.74 µM; in the test with LXFL 529 NSCLC, 0.254 µM; in the test on HOP-18 NSCLC, 1.5 µM. In the test with DMS 114 small cell lung, the GI50 was 0.227 µM. Further, the TGI came to 2.97 µM in the test on KM20L2 colon; 1.8 µM in the test with M19-MEL melanoma; 1.7 µM in the test on SNB-78 CNS; 3.19 µM with XF 498 CNS; 1.28 µM in the test on LXFL 529 NSCLC; 2.85 µM in the test on HOP-18 NSCLC. For the same compound, in the test with DMS 114 small cell lung, the TGI was found to be 0.655 µM.

Turning to `O=c1c2ccccc2nc2n1CCc1c-2[nH]c2cc3c(cc12)OCO3`, in the test with MDA-N, the TGI is above 25 µM.

With `COc1ccc(NC(=S)C#N)cc1`, the TGI with MDA-N is above 100 µM.

For the compound `C=C1C[C@@H](O)[C@@H](Br)C(C)(C)[C@]12CCC(C)(Br)C(Cl)C2` (stereo partly specified), in the test on MDA-N, the GI50 was 17.7 µM; the concentration for total growth inhibition (TGI) was > 50 µM and 36.2 µM.

For `O=C(O)CCC(=O)Oc1ccc(O)c2c1CCCC2=O`, the TGI is above 100 µM in the test on KM20L2 colon; above 100 µM with M19-MEL melanoma; above 100 µM in the test on SNB-78 CNS; 5.84 µM in the test on XF 498 CNS; above 100 µM with LXFL 529 NSCLC; above 100 µM with HOP-18 NSCLC. Further, in the test with DMS 114 small cell lung, the TGI was above 100 µM.

Consider `COC(=O)CC1C2(C)C3=C(C)C(c4ccoc4)CC3OC2C2OC(=O)C3(C)C=CC(=O)C1(C)C23` (stereo unspecified), for which, in the test with MDA-N, the TGI came to 2.93 µM.

The compound `CC(=O)NC(CS)C(=O)O` (stereo unspecified) registered a TGI with MDA-N above 100 µM.

For the compound `N#CC(C(=O)CCC(=O)Nc1ccc(Cl)cc1)c1ccc(Cl)cc1` (stereo unspecified), the TGI with KM20L2 colon, with M19-MEL melanoma, with SNB-78 CNS, in the test with XF 498 CNS, with LXFL 529 NSCLC and in the test with HOP-18 NSCLC was above 100 µM throughout. The TGI in the test with RXF-631 renal and with DMS 114 small cell lung was above 100 µM each time.

As for `O=C1C(Cl)=C(Cl)C(=O)N1c1ccccc1Cl`, the TGI was above 100 µM in the test on KM20L2 colon; above 100 µM in the test on M19-MEL melanoma; above 100 µM with SNB-78 CNS; above 100 µM with XF 498 CNS; above 86.3 µM in the test with LXFL 529 NSCLC; above 100 µM with HOP-18 NSCLC. This compound had a TGI with DMS 114 small cell lung above 100 µM.

Take `CCC(C)C(=O)O[C@H]1C(=O)O[C@@H]2C[C@H]3C(C)=CC(=O)[C@@H](O)[C@]3(C)[C@H]3[C@@H](O)[C@H](O)[C@@]4(C)OC[C@]32[C@@H]14` (stereo partly specified): the TGI came to 0.31 µM with KM20L2 colon; 0.0909 µM in the test on M19-MEL melanoma; 0.394 µM in the test with SNB-78 CNS; 0.0819 µM in the test with XF 498 CNS; 0.123 µM in the test with LXFL 529 NSCLC; 0.0543 µM in the test with MDA-N. The TGI stood at 0.596 µM in the test with HOP-18 NSCLC and 0.0431 µM with DMS 114 small cell lung.

`O=C(CCC(=O)Nc1ccc(Cl)cc1)CC(=O)c1ccc2ccccc2c1`: the TGI in the test with KM20L2 colon, in the test with M19-MEL melanoma, in the test on SNB-78 CNS, in the test on LXFL 529 NSCLC, in the test with HOP-18 NSCLC and in the test on RXF-631 renal was above 100 µM in each case. Also, in the test with DMS 114 small cell lung, the concentration for total growth inhibition (TGI) was above 100 µM.

Turning to `O=C(Nc1ccccc1)n1cc(-c2ccccn2)c(N2CCOCC2)n1`, the TGI in the test with KM20L2 colon is 8.69 µM; in the test with M19-MEL melanoma, above 100 µM; in the test on SNB-78 CNS, above 100 µM; in the test on XF 498 CNS, above 100 µM; in the test on LXFL 529 NSCLC, above 100 µM; with HOP-18 NSCLC, above 100 µM. Further, the TGI in the test on DMS 114 small cell lung is above 100 µM.

`O=C(Nc1ccn(C2CC(I)C(COC(c3ccccc3)(c3ccccc3)c3ccccc3)O2)c(=O)n1)c1ccccc1` (stereo unspecified): the TGI with MDA-N worked out at 14.6 µM.

With `Cc1ccccc1C=NC12CC3CC(CC(C3)C1)C2`, the TGI with KM20L2 colon, in the test with M19-MEL melanoma, in the test on SNB-78 CNS, in the test on LXFL 529 NSCLC, with HOP-18 NSCLC and in the test on RXF-631 renal was above 100 µM throughout. Also, in the test with DMS 114 small cell lung, the TGI was above 100 µM.

With `CC(=O)n1nnc2ccc([N+](=O)[O-])cc21`, the TGI with KM20L2 colon, in the test with M19-MEL melanoma, with SNB-78 CNS, in the test on XF 498 CNS, with LXFL 529 NSCLC and in the test on HOP-18 NSCLC was above 100 µM each time. For the same compound, the TGI with DMS 114 small cell lung was above 100 µM.

The values above are taken from PubChem BioAssay (NCI).
